In brackets after ≈: the same amount, converted by molar mass.

The target in one assay is T1, EcUPPS (Escherichia coli, UniProt P60472).
T1 sequence (P60472 1-253): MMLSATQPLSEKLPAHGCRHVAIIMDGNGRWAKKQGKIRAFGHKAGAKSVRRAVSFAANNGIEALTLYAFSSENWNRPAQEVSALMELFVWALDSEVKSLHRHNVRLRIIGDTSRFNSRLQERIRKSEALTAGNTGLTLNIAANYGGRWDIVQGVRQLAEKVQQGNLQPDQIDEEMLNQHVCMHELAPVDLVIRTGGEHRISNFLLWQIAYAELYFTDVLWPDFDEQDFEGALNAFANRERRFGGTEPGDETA
The settings on record: inhibitor in EcUPPS X-ray structure 2E98; cited from earlier work.

For assay [1], the system named is panel of both Gram-positive and Gram-negative bacteria. Format: cell-based. The settings on record: for MIC values (range in words): B. anthracis Sterne, MRSA, VRE, L. monocytogenes.
Assay [2] concerns Bacillus anthracis strain Sterne. The assay is described as follows: microbe, parasite or virus in culture. Format: cell-based.

Consider `O=P(O)(O)C(O)(Cc1cccc(-c2cccc3c2oc2ccccc23)c1)P(=O)(O)O` [BPH-629], for which the IC50 on EcUPPS is ~0.3 µM.
With `Cc1cc(Cl)ccc1-c1ccc(/C=C2\SC(=S)N(CC(=O)O)C2=O)o1` [Compound 1], in assay [1], the “MIC values (range in words)” value was “high ng/mL to low μg/mL range”, the “growth of Gram negatives” value was “did not inhibit the growth of Gram negatives” and the “growth of Gram positives” value is recorded as “inhibited the growth of Gram positives”. In assay [2], this compound yielded an MIC of 1 to 2 mg/L (≈ 2.54 to 5.08 µM).
Turning to `O=C(O)CCN1C(=O)/C(=C/c2ccc(-c3ccc(Cl)cc3Cl)o2)SC1=S` [Compound 4], in assay [1], the “MIC values (range in words)” value is “high ng/mL to low μg/mL range”, the “growth of Gram negatives” value was “did not inhibit the growth of Gram negatives” and the “growth of Gram positives” value is recorded as “inhibited the growth of Gram positives”.

As a reminder, the IC50 is the concentration that inhibits the measured activity by half.

The record behind these values is publication PMC4096218 (Journal of Medicinal Chemistry, 2014).
